# Paper PMC8698070, “The Zoonotic Helminth Parasite Fasciola hepatica: Virulence-Associated Cathepsin B and Cathepsin L Cysteine Peptidases Secreted by Infective Newly Excysted Juveniles (NEJ)” (Animals : an Open Access Journal from MDPI, 2021)
# “Also recorded” adds a separate entry of the source. Where a SMILES comes first, the peptide text is derived from it. The star is where a group is joined. Cbz = O=C(OCc1ccccc1)*; CH2F = FC*
# Legend:
# FhCB1 = FhCB1 (Fasciola hepatica, UniProt Q8I7B2); test: Inhibition of recombinant FhCB1, fluorogenic substrate assay (Z-Phe-Arg-AMC); assay type: biochemical; conditions: for inhibition of enzymatic activity (inhibitor screen, Figure 5), in words: FhCB1, inhibitor 1000-15 nM; for Ki: read-out: inhibition constant Ki
# Protocol: (§1) Recombinant peptidases were assayed for enzymatic activity using a fluorogenic substrate assay. The reactions were carried out in 0.1 M C-P buffer (pH 7.0) with 1 mM DTT in a final volume of 200 μL, in a black 96-well plate. Each well contained activated enzyme (140 nM) and 20 μM fluorogenic substrate, which was added to start the reaction. All assays were run in triplicate at 37 °C for 1 h. Enzyme activity was monitored by rate of hydrolysis and subsequent release of the AMC group on the synthetic peptide substrates at an excitation wavelength of 370 nm and an emission wavelength of 460 nm, as relative fluorescence units (RFU), in a PolarStar Omega Spectrophotometer (BMG Labtech, Aylesbury, UK). All data were plotted and analysed using MARS Data Analysis Software (BMG Labtech, UK) and GraphPad Prism version 5.
# (§2) Commercially available inhibitors of cathepsin B (Ca074 and Ca074-OMe), cathepsin L (L, L1, LII, LIII and LIV), cathepsin K (KI, KII and KIII) and cathepsin S were purchased from Merck Millipore (Cork, Ireland; Supplementary Figure S2). The broad-spectrum papain peptidase inhibitor Z-Phe-Ala-FMK was purchased from Enzo Life Sciences (Exeter, UK). These were used to determine and compare the inhibition constant (Ki) against the recombinant FhCBs and FhCL3. All the assays were carried out in 0.1 M C-P buffer with 1 mM DTT and 0.01% Brij® L23, at the pH corresponding to the optimum for each enzyme in a total 200 µL reaction volume. The peptidases (140 nM) were pre-incubated with the inhibitor (1000-15 nM) at room temperature, for 30 min, before starting the reaction by the addition of the substrate that was optimal for each enzyme (FhCB1, Z-Phe-Arg-AMC; FhCB2 and FhCB3, Z-Val-Ile-Arg-AMC; FhCL3, Z-Gly-Pro-Arg-AMC). Substrate concentrations were equal to KM (shown in Table 1) and the apparent inhibition constant (Ki^app) values were calculated with GraphPad Prism 5, using the Morrison equation for tight binding inhibition (Equation (3)). For competitive inhibitors, such as those used in this study, Ki^app was fitted to a second equation (Equation (4)) from which Ki can be determined. (3) vi/vo=1−([E])+[I]+Kiapp)−([E]+[I]+Kiapp)^2−4[E][I] /2[E] (4) Kiapp=Ki(1+[S]/KM)
# FhCB2 = FhCB2 (Fasciola hepatica, UniProt A5X493); test: Inhibition of recombinant FhCB2, fluorogenic substrate assay (Z-Val-Ile-Arg-AMC); assay type: biochemical; conditions: for inhibition of enzymatic activity (inhibitor screen, Figure 5), in words: FhCB2, inhibitor 1000-15 nM; for Ki: read-out: inhibition constant Ki
# Protocol: as §1, §2
# FhCB3 = FhCB3 (Fasciola hepatica, UniProt A7UNB2); test: Inhibition of recombinant FhCB3, fluorogenic substrate assay (Z-Val-Ile-Arg-AMC); assay type: biochemical; conditions: for inhibition of enzymatic activity (inhibitor screen, Figure 5), in words: FhCB3, inhibitor 1000-15 nM; for Ki: read-out: inhibition constant Ki
# Protocol: as §1, §2
# FhCL3 = FhCL3 (Fasciola hepatica, UniProt A0A879R2T5); test: Inhibition of recombinant FhCL3, fluorogenic substrate assay (Z-Gly-Pro-Arg-AMC); assay type: biochemical; conditions: for inhibition of enzymatic activity (inhibitor screen, Figure 5), in words: FhCL3, inhibitor 1000-15 nM; for Ki: read-out: inhibition constant Ki
# Protocol: as §1, §2
# [1] = test system: Cc1cc(=O)oc2cc(NC(=O)[C@H](CCCNC(=N)N)NC(=O)[C@@H]3CCCN3C(=O)CNC(=O)OCc3ccccc3)ccc12; test: purified protein, by the assay type; conditions: substrate 2000–4 μM, optimum pH, ± standard deviation, pH 7.0, 37.0 °C
# Protocol: (§4) To determine the kinetic constants, Kcat, KM and Kcat/KM of the activated peptidases against the Z-Phe-Arg-AMC, Z-Gly-Pro-Arg-AMC and Z-Val-Ile-Arg-AMC substrates were used at concentrations of 2000–4 μM over a series of 10 dilutions using enzymes, buffer and assay conditions as described above. The kinetic constants, KM and Vmax, were calculated using the Michaelis–Menten equation (Equation (1)) in a non-linear regression analysis of initial reaction velocity against substrate concentration (built into GraphPad Prism 5). The value of KM can then be fitted to Equation (2) to determine the catalytic constant Kcat. (1) ν=d[P]/dt=Vmax[S]/KM+[S] where ν is the initial reaction velocity, [P] is the concentration of the formed product, [S] is the substrate concentration, Vmax is the maximum rate achieved by the system and KM is the Michaelis–Menten constant, which represents the concentration of substrate at which the reaction has a rate equal to half of Vmax. (2) ν=Kcat[Et]{}[S]/KM+[S] where [Et] is the enzyme concentration and Kcat is the catalytic constant, representing the measure of substrate molecules converted to product by enzyme per second.
# human cathepsin B (HsCB) = molecular target: T1, human cathepsin B (HsCB) (Homo sapiens, UniProt P07858); test: Inhibitor screen against human cathepsin B control; assay type: biochemical
# T1 construct: purchased Sigma-Aldrich; host or cells: human embryonic kidney cells
# Text: (§3) The Schistosoma mansoni cathepsin B1 (SmCB1) was also produced in our laboratory using P. pastoris as described above. The human cathepsin B (HsCB) and cathepsin L1 (HsCL1) were produced in human embryonic kidney cells (Sigma-Aldrich).
# as §2, with “All the assays were carried out in 0.1 M C-P buffer with 1 mM DTT and 0.01% Brij® L23, at the pH corresponding to the optimum for each enzyme in a total 200 µL reaction volume. The peptidases (140 nM) were pre-incubated with the inhibitor (1000-15 nM) at room temperature, for 30 min, before starting the reaction by the addition of the substrate that was optimal for each enzyme (FhCB1, Z-Phe-Arg-AMC; FhCB2 and FhCB3, Z-Val-Ile-Arg-AMC; FhCL3, Z-Gly-Pro-Arg-AMC).” left out
# The broad-range cysteine peptidase inhibitor Z-Phe-Ala-FMK was also included (Figure 5).
# Figure 5 Profile of inhibition of FhCB1, FhCB2, FhCB3 and FhCL3. Commercially available inhibitors of cathepsin B (Ca074 and Ca07a-OMe), cathepsin L (L, L1, LII, LIII and LIV), cathepsin K (KI, KII and KIII), cathepsin S and the broad-spectrum papain peptidase inhibitor Z-Phe-Ala-FMK (A–L) were used to determine and compare the inhibition constant against recombinants FhCB1, FhCB2, FhCB3, FhCL3, HsCB and HsCL1. […] Error bars indicate standard deviation of three replicates.
# cathepsin L1 (HsCL1) = molecular target: T2, cathepsin L1 (HsCL1) (Homo sapiens, UniProt P07711); test: Inhibitor screen against human cathepsin L1 control; assay type: biochemical
# T2 construct: purchased Sigma-Aldrich; host or cells: human embryonic kidney cells
# Text: as §3, §2
# A panel of 12 commercially available cysteine peptidase inhibitors that preferentially target mammalian cathepsin B (Ca074 and Ca074-OMe), cathepsin L (L, L1, LII, LIII and LIV) cathepsin S (S) and cathepsin K (KI, KII and KIII) were screened against the FhCBs, FhCL3 and, as controls, HsCB and HsCL1. The broad-range cysteine peptidase inhibitor Z-Phe-Ala-FMK was also included (Figure 5).
# Figure 5 Profile of inhibition of FhCB1, FhCB2, FhCB3 and FhCL3. Commercially available inhibitors of cathepsin B (Ca074 and Ca07a-OMe), cathepsin L (L, L1, LII, LIII and LIV), cathepsin K (KI, KII and KIII), cathepsin S and the broad-spectrum papain peptidase inhibitor Z-Phe-Ala-FMK (A–L) were used to determine and compare the inhibition constant against recombinants FhCB1, FhCB2, FhCB3, FhCL3, HsCB and HsCL1. Activity is represented as the percentage of enzymatic activity observed by hydrolysis of a fluorogenic quenched peptide substrate following a pre-incubation with inhibitor in relation to the activity of the enzyme alone. Error bars indicate standard deviation of three replicates.
# [2] = test system: CC[C@H](C)[C@H](NC(=O)[C@@H](NC(=O)OCc1ccccc1)C(C)C)C(=O)N[C@@H](CCCNC(=N)N)C(=O)Nc1ccc2c(C)cc(=O)oc2c1; test: purified protein, by the assay type; conditions: other: FhCB3; substrate 2000–4 μM, optimum pH; ± standard deviation; pH 7.0; 37.0 °C
# Protocol: as §4
# [3] = test system: Cc1cc(=O)oc2cc(NC(=O)[C@H](CCCNC(=N)N)NC(=O)[C@H](Cc3ccccc3)NC(=O)OCc3ccccc3)ccc12; test: purified protein, by the assay type; conditions: substrate 2000–4 μM, optimum pH, ± standard deviation, pH 7.0, 37.0 °C
# Protocol: as §4
# [4] = recombinant FhCB1 140 nM, 30 min pre-incubation, substrate Z-Phe-Arg-AMC at KM, optimum pH, ± SEM
# [5] = recombinant FhCB2 140 nM, 30 min pre-incubation, substrate Z-Val-Ile-Arg-AMC at KM, optimum pH, ± SEM
# [6] = recombinant FhCB3 140 nM, 30 min pre-incubation, substrate Z-Val-Ile-Arg-AMC at KM, optimum pH, ± SEM
# [7] = recombinant FhCL3 140 nM, 30 min pre-incubation, substrate Z-Gly-Pro-Arg-AMC at KM, optimum pH, ± SEM
# FhCB3, sequence (A7UNB2 entry or part of it): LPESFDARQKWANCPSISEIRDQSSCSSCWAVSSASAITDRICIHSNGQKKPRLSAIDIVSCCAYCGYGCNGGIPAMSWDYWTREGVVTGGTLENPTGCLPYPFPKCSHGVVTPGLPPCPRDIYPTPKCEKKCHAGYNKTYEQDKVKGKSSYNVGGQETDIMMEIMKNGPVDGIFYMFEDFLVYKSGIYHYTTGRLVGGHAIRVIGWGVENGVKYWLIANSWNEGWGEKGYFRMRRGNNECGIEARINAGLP
# FhCB1, sequence (Q8I7B2 entry or part of it): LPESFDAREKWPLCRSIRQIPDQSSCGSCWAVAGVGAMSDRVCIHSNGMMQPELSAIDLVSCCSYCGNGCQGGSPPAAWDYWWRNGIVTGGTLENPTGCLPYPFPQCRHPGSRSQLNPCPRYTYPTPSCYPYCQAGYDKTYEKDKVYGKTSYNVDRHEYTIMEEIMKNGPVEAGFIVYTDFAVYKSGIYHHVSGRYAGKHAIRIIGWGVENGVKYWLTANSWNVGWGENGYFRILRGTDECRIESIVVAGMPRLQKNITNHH
# FhCL3, sequence (A0A879R2T5 entry or part of it): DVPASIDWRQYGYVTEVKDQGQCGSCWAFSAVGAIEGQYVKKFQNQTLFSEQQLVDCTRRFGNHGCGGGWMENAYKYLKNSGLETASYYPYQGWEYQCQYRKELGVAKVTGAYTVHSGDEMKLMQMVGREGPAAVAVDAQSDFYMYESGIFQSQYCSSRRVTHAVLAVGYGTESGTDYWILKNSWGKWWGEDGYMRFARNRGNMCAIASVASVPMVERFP
# T2 sequence (P07711 114-333): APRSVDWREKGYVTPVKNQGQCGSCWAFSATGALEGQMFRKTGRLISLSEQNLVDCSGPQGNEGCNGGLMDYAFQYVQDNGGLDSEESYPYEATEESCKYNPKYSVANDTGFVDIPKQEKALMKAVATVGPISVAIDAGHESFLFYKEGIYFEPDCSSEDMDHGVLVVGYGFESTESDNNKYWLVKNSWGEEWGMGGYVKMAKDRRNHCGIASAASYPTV
# FhCB2, sequence (A5X493 entry or part of it): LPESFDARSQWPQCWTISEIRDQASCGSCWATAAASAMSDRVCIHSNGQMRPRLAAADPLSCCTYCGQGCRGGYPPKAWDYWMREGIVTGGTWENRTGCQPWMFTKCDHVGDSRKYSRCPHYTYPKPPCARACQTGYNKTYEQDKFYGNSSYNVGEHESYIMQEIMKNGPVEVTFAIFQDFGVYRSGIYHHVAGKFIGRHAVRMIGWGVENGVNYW
compound,measurement,setting,value
CC(C)C[C@H](NC(=O)OCc1ccccc1)C(=O)NCC(=O)CNC(=O)[C@H](CC(C)C)NC(=O)OCc1ccccc1 [KI],"inhibition of enzymatic activity (inhibitor screen, Figure 5), in words",FhCB1,generally poor inhibitors
same,"inhibition of enzymatic activity (inhibitor screen, Figure 5), in words",FhCB2,generally poor inhibitors; also recorded: not inhibited
same,"inhibition of enzymatic activity (inhibitor screen, Figure 5), in words",FhCB3,reduced
same,"inhibition of enzymatic activity (inhibitor screen, Figure 5), in words",FhCL3,reduced
FhCL3 (Fasciola hepatica),Km,[1]; other: FhCL3,27 ± 2 µM
same,kcat,[1]; other: FhCL3,0.5 ± 0.07 s⁻¹
same,kcat/Km,[1]; other: FhCL3,"17,960 M^-1S^-1"
CCCNC(=O)[C@H]1O[C@@H]1C(=O)N[C@H](C(=O)N1CCC[C@H]1C(=O)O)[C@@H](C)CC [Ca074],"inhibition of enzymatic activity (inhibitor screen, Figure 5), in words",FhCB1,poor inhibitors; also recorded: very poor inhibitors
same,inhibition constant Ki,FhCB1; [4],poor inhibition
same,Ki,FhCB1; [4],7.32 ± 0.934 µM
same,"inhibition of enzymatic activity (inhibitor screen, Figure 5), in words",FhCB2,poor inhibitors; also recorded: very poor inhibitors
same,inhibition constant Ki,FhCB2; [5],poor inhibition
same,Ki,FhCB2; [5],5.93 ± 0.567 µM
same,"inhibition of enzymatic activity (inhibitor screen, Figure 5), in words",FhCB3,poor inhibitors; also recorded: very poor inhibitors
same,inhibition constant Ki,FhCB3; [6],poor inhibition
same,Ki,FhCB3; [6],0.54 ± 0.0452 µM
same,"inhibition of enzymatic activity (inhibitor screen, Figure 5), in words",FhCL3,poor inhibitors
same,inhibition constant Ki,FhCL3; [7],poor inhibition
same,Ki,FhCL3; [7],0.603 ± 0.133 µM
same,"inhibition of enzymatic activity (inhibitor screen, Figure 5), in words",human cathepsin B (HsCB),selective for HsCB compared to HsCL1
O=C(NC(Cc1ccccc1)C(=O)NC(Cc1ccccc1)C(=O)CF)OCc1ccccc1 (stereo not drawn) [Inhibitor L1] (Cbz-Phe-Phe-CH2F; configuration not given here),"inhibition of enzymatic activity (inhibitor screen, Figure 5), in words",FhCB1,most effective at blocking
same,"inhibition of enzymatic activity (inhibitor screen, Figure 5), in words",FhCB3,most effective at blocking
same,"inhibition of enzymatic activity (inhibitor screen, Figure 5), in words",cathepsin L1 (HsCL1),specificity for HsCL1 over HsCBs
FhCB3 (Fasciola hepatica),Km,[2],42 ± 4 µM
same,kcat,[2],0.1 ± 0.004 s⁻¹
same,kcat/Km,[2],2266 M^-1S^-1
same,Km,[1]; other: FhCB3,40 ± 4 µM
same,kcat,[1]; other: FhCB3,0.02 ± 0.002 s⁻¹
same,kcat/Km,[1]; other: FhCB3,579 M^-1S^-1
same,Km,[3]; other: FhCB3,27 ± 2 µM
same,kcat,[3]; other: FhCB3,0.05 ± 0.007 s⁻¹
same,kcat/Km,[3]; other: FhCB3,1708 M^-1S^-1
FhCB1 (Fasciola hepatica),Km,[3]; other: FhCB1,69 ± 5 µM
same,kcat,[3]; other: FhCB1,1.0 ± 0.2 s⁻¹
same,kcat/Km,[3]; other: FhCB1,"13,596 M^-1S^-1"
CC(C)C[C@H](NC(=O)OCc1ccccc1)C(=O)NNC(=O)NNC(=O)[C@H](CC(C)C)NC(=O)C(N)Cc1ccccc1 (stereo partly drawn) [KIII],"inhibition of enzymatic activity (inhibitor screen, Figure 5), in words",FhCB1,weak inhibitors; also recorded: generally poor inhibitors
same,"inhibition of enzymatic activity (inhibitor screen, Figure 5), in words",FhCB2,no effect; also recorded: generally poor inhibitors; also recorded: not inhibited
same,"inhibition of enzymatic activity (inhibitor screen, Figure 5), in words",FhCB3,abrogated the activity; also recorded: reduced
same,"inhibition of enzymatic activity (inhibitor screen, Figure 5), in words",FhCL3,reduced
COc1ccc(C(=O)ONC(=O)CNC(=O)C(Cc2ccccc2)NC(=O)OCc2ccccc2)cc1 (stereo not drawn) [LIII],"inhibition of enzymatic activity (inhibitor screen, Figure 5), in words",cathepsin L1 (HsCL1),specificity for HsCL1 over HsCBs
O=C(NCc1ccccc1)C(Cc1ccccc1)NC(=O)C1OC1C(=O)NCCc1ccc(O)cc1 (stereo not drawn) [L],"inhibition of enzymatic activity (inhibitor screen, Figure 5), in words",FhCB1,did not inhibit
same,"inhibition of enzymatic activity (inhibitor screen, Figure 5), in words",FhCB2,did not inhibit
same,"inhibition of enzymatic activity (inhibitor screen, Figure 5), in words",FhCB3,significantly reduced
same,"inhibition of enzymatic activity (inhibitor screen, Figure 5), in words",FhCL3,significantly reduced
same,"inhibition of enzymatic activity (inhibitor screen, Figure 5), in words",cathepsin L1 (HsCL1),specificity for HsCL1 over HsCBs
CC[C@H](C)[C@H](NS(=O)(=O)c1cccc2ccccc12)C(=O)N[C@H](C=O)Cc1c[nH]c2ccccc12 [LIV],"inhibition of enzymatic activity (inhibitor screen, Figure 5), in words",cathepsin L1 (HsCL1),specificity for HsCL1 over HsCBs
CC(C)C[C@H](NC(=O)OCc1ccccc1)C(=O)NNC(=O)NNC(=O)[C@H](CC(C)C)NC(=O)C(Cc1ccccc1)NC(=O)OC(C)(C)C (stereo partly drawn) [KII],"inhibition of enzymatic activity (inhibitor screen, Figure 5), in words",FhCB1,weak inhibitors; also recorded: generally poor inhibitors
same,Ki,FhCB1; [4],0.466 ± 0.0406 µM
same,"inhibition of enzymatic activity (inhibitor screen, Figure 5), in words",FhCB2,no effect; also recorded: generally poor inhibitors; also recorded: not inhibited
same,Ki,FhCB2; [5],> 1 µM
same,"inhibition of enzymatic activity (inhibitor screen, Figure 5), in words",FhCB3,abrogated the activity; also recorded: reduced
same,Ki,FhCB3; [6],0.227 ± 0.0283 µM
same,"inhibition of enzymatic activity (inhibitor screen, Figure 5), in words",FhCL3,reduced
same,Ki,FhCL3; [7],0.0007 ± 0.00019 µM
